According to patent US20060189576A1, “Substituted vitamin d analogues and their therapeutic uses” (priority 2003, published 2006):
Read-outs that look alike come from different tables or passages of the source. Marks after values point to notes of the source that are not given here.

Legend:
HL-60 cells = test: HL-60 cell differentiation (NBT reduction assay); format: cell-based
Protocol: To evaluate the effect on cell differentiation HL-60 cells were seeded at 4×10^4 cells/ml in 25 cm^2 Falcon tissue chambers using RPMI 1640 medium supplemented with 20% FCS and gentamycin (50 μg/ml) in a final volume of 5 ml. Cultures were maintained at 37° C. in a humidified atmosphere of 5% CO2 in air. […] After 4 days of culture, the dishes were shaken to lose adherent cells. Cells were washed twice in RPMI, counted and assayed for differentiation markers (NBT reduction assay). Superoxide production was measured as NBT reducing activity as described previously (Ostrem V. K et al. Proc Natl Acad Sci USA 84: 2610-2614, 1987). HL-60 cells at 1×10^6/ml were mixed with an equal volume of freshly prepared solution of phorbol 12-myristate 13-acetate (200 ng/ml) and […] and incubated for 30 min at 37° C. The percentage of cells containing black formazan deposits was determined using a hemacytometer.

[1] = Secondary prevention or treatment of osteoporosis in ovariectomized mice; format: in vivo, C3H female mice
Protocol: 12 week old C3H female mice are subjected to bilateral ovariectomy or sham surgery. The animals are treated with the analog or vehicle by oral gavage or intraperitoneally. Dosing is started 4 weeks after sugery and continued for 4-10 weeks.
(§1) Before the first treatment in vivo measurements are performed to determine bone mineral density (BMD), bone mineral content (BMC) of total body and spine by dual-energy, X-ray absorptiometry (DXA). Urine and serum is collected to measure calcium levels together with collagen cross-links in urine and osteocalcin in serum. The animals are weighed regularly during the experimental period. After 4 weeks treatment urine and serum is again collected and biochemical parameters are determined and urine is collected and DXA measurement is performed in vivo to determine BMD and BMC. After killing the animals tibiae and femora are dissected The following biochemical parameters are investigated: serum calcium, serum osteocalcin, urine calcium, urine collagen cross-links, femur calcium.
(§2) Tibiae are used for histomorphometric analysis and femurs for measurement of cortical and trabecular volumetric density and geometry by peripheral quantitative computed tomography (pQCT) ex vivo.

[2] = Primary prevention of osteoporosis in ovariectomized mice; format: in vivo, C3H female mice
Protocol: 12 week old C3H female mice are subjected to bilateral ovariectomy or sham surgery. The animals are treated with the analog or vehicle by oral gavage or intraperitoneally. Dosing is started 3 days after sugery and continued for 8-9 weeks.
as §1, with “dual-energy” for “dual-energy,”, “determined. At the end of the experiment (8-9 weeks)” for “determined and”
as §2

[3] = for Femur calcium: NMRI mice
Protocol: Eight weeks old, male NMRI mice were obtained from the Proefdierencentrum of Leuven (Belgium) and fed a vitamin D-replete diet (0.2% calcium, 1% phosphate, 2000 U vitamin D/kg; Hope Farms, Woerden, The Netherlands). […] The control group was injected with vehicle (arachis oil). The average weight of each group of 6 mice was determined at the beginning and at the end of the experiment. The following parameters were evaluated: serum calcium, serum osteocalcin, femur calcium and urinary calcium. Serum and urinary calcium were measured by a microcolorimetric assay (Sigma, St. Louis, Mo.). Femurs were removed and femur calcium content was measured in HCl-dissolved bone ash (obtained by heating for 24 h in an oven at 100° C.), using the same technique as for serum and urinary calcium.

hDBP = molecular target: T1, hDBP (Homo sapiens, UniProt P02774); test: Affinity for human DBP: competition with [3H]1α,25(OH)2D3; format: binding; details: percentage activity (at 50% of the dose response) in comparison with 1α,25(OH)2D3 (=100%)
T1 sequence (P02774 17-474): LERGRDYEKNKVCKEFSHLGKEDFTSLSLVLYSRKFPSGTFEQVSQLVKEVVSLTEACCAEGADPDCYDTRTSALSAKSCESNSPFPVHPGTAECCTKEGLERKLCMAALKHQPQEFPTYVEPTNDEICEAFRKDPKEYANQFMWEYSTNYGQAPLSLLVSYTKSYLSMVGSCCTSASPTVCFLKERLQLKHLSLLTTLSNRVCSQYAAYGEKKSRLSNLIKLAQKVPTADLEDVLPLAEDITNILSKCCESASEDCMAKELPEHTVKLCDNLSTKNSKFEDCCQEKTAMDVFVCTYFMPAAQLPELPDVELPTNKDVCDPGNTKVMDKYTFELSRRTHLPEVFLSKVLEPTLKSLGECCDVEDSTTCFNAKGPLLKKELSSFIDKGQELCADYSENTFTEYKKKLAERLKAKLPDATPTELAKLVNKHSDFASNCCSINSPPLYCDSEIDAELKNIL
Protocol: Phase separation was then obtained by the addition of 0.5 ml of cold dextran-coated charcoal.

MCF-7 cells [4] = test: MCF-7 cell proliferation ([3H]thymidine incorporation); format: cell-based
Protocol: To evaluate the effect of on cell proliferation, malignant MCF-7 cells were cultured in DMEM/nut. mix. […] Cultures were maintained at 37° C. in a humidified atmosphere of 5% CO2 in air. MCF-7 cells were seeded at 5×10^3 cells/well in the above described medium in 96-well microtiter plates in a final volume of 0.2 ml per well. Triplicate cultures were performed. […] Then, 1 μCi [^3H]thymidine was added to each well and cells were harvested after 4 h incubation with a Packard harvester and measured by the Packard Topcount System (Packard, Meriden, USA).

vitamin D receptor = molecular target: T2, vitamin D receptor (Sus scrofa, UniProt A3RGC1); details: percentage activity (at 50% of the dose response) in comparison with 1α,25(OH)2D3 (=100%)
T2 sequence (A3RGC1 1-427): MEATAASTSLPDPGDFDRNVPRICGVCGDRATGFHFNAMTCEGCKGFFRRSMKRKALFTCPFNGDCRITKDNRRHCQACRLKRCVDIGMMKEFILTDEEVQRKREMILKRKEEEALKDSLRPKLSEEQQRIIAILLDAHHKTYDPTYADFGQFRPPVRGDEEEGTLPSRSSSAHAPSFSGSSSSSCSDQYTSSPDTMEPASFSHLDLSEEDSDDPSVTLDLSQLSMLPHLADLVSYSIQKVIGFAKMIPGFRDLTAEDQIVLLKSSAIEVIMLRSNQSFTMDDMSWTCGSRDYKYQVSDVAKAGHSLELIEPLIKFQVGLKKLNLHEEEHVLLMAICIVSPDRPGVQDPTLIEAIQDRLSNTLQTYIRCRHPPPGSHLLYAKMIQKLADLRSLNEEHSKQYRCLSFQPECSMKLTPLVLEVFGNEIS
Protocol: The incubation was performed at 4° C. for 20 h and phase separation was obtained by addition of dextran-coated charcoal.

[5] = background, well established; cited from earlier work
MCF-7 cells [6] = details: known superagonists; data published in J Bone Mineral Res 15 (2): 237-252 (2000); cited from earlier work
[7] = known superagonists; data published in J Bone Mineral Res 15 (2): 237-252 (2000); cited from earlier work

14-epi-2α-methyl-19-nor-23-yn-1α,25-dihydroxyvitamin D3 [Compound 108]
prodifferentiating activity, times that of 1α,25(OH)2D3 (HL-60 cells; HL 60 cells): 40 times
prodifferentiating effect (in words) (HL-60 cells; HL 60 cells): very potent
IN VITRO STUDIES HL 60 (HL-60 cells; potency to differentiate HL 60 cells, percentage activity vs 1α,25(OH)2D3 (=100%)): 4000%
serum calcium or urinary calcium levels ([1]; after four weeks, more particularly 8 weeks of treatment): not significantly increased
BMD, BMC and femur calcium concentration ([1]; ovariectomized mice, dosing from 4 weeks after surgery, compared to levels prior to treatment): increase
serum calcium or urinary calcium levels ([2]; after at least four weeks, more particularly 8 weeks of treatment): not significantly increased
BMD, BMC and femur calcium ([2]; ovariectomized mice, dosing from 3 days after surgery for 8-9 weeks): increase
increase of calcium levels in bone compared to 0.1 μg/kg/d 1,25(OH)2D3 ([3]; 1 μg/kg/d, 7 consecutive days): 18%
increase of calcium levels in bone compared to 0.2 μg/kg/d 1,25(OH)2D3 ([3]; 1 μg/kg/d, 7 consecutive days): 14%
increase of calcium levels in bone compared to 0.4 μg/kg/d 1,25(OH)2D3 ([3]; 1 μg/kg/d, 7 consecutive days): 20%
increase of calcium levels in bone compared to vehicle treated mice ([3]; 1 μg/kg/d, 7 consecutive days): 10%
Femur calcium ([3]; 0.4 μg/kg/d intraperitoneally, 7 consecutive days): 9.57 ± 0.26 mg
Femur calcium ([3]; 1 μg/kg/d intraperitoneally, 7 consecutive days): 10.52 ± 0.43*^,$ mg
IN VIVO STUDIES Osteocalcin serum ([3]; mice, daily intraperitoneal injection 7 consecutive days, percentage activity vs 1α,25(OH)2D3 (=100%)): 4%
IN VIVO STUDIES Calcium serum ([3]; mouse, in vivo, ip): 2%
IN VIVO STUDIES Calcium urine ([3]; mouse, in vivo, ip): 4%
Serum calcium in mice ([3]; mouse, in vivo, ip): 2%
AFFINITY STUDIES DBP (hDBP): 0.3%
antiproliferative activity, times that of 1α,25(OH)2D3 (MCF-7 cells [4]; MCF-7 cells): 120 times
antiproliferative effect (in words) (MCF-7 cells [4]; MCF-7 cells): very potent
IN VITRO STUDIES MCF-7 (MCF-7 cells [4]; antiproliferative action, percentage activity vs 1α,25(OH)2D3 (=100%)): 12000%
Antiproliferative activity on MCF-7 cells (MCF-7 cells [4]; percentage activity (at 50% of the dose response) vs 1α,25(OH)2D3 (=100%)): 12000%
AFFINITY STUDIES VDR (vitamin D receptor): 80%

C[C@H](CCCC(C)(C)O)[C@H]1CC[C@H]2/C(=C/C=C3C[C@@H](O)C[C@H](O)C3)CCC[C@]12C [19-nor-1α,25-dihydroxyvitamin D3]
calcemic effect, % of that of 1α,25(OH)2D3 [5]: 10%

C=C1/C(=C\C=C2/CCC[C@]3(C)[C@@H]([C@H](C)/C=C/[C@@H](O)C4CC4)CC[C@@H]23)C[C@@H](O)C[C@@H]1O [MC 903]
Antiproliferative activity on MCF-7 cells (MCF-7 cells [6]): 100-200%
Serum calcium in mice [7]: 1%

C=C1/C(=C\C=C2/CCC[C@]3(C)[C@@H]([C@H](C)OCCC(C)(C)O)CC[C@@H]23)C[C@@H](O)C[C@@H]1O [OCT]
Antiproliferative activity on MCF-7 cells (MCF-7 cells [6]): 100-150%
Serum calcium in mice [7]: 0.3%
